Seven molecules from patent US20160115129A1, “NOVEL F[…] ACID ESTER COMPOUND AND SALT THEREOF” (TAIHO PHARMACEUTICAL CO., LTD., priority 2013, published 2016) can be followed below.

One data set concerns female SD rats. The data set can be described thus: Urethral baseline pressure (intraurethral pressure) in anesthetized rats after oral administration. It is filed as in vivo. To be noted: 10 mg/kg oral, 11-week-old female SD rats, 30 minutes after 8 hours from administration, compared with solvent administration group (Student's t-test), FIG. 1. The protocol: The compounds of the present invention and a comparative compound were individually orally administered in an amount of 10 mg/kg to 11-week-old female SD rats (test substance-administration groups) and distilled water was orally administered as the control to 11-week-old female SD rats (solvent administration group, n=8). As the comparative compound, 4-piperidyl 2,2-diphenyl-2-propoxyacetate was used (Comparative Example).
Seven and a half hours after administration, each rat was anesthetized by intraperitoneal administration of 1.2 g/kg of urethane. Thereafter, the ureters and the area between the urethra and the bladder were ligated, and a vesical fistula catheter and a catheter for measuring intraurethral pressure were inserted and indwelled in the bladder and the urethra. […] Intravesical pressure and intraurethral pressure were recorded via a polygraph connected with the pressure transducers. […] Physiological saline was injected into the urethra using the micro syringe pump connected to the urethra at 3 mL/hr, and the changes in intraurethral pressure associated with the rhythmic contraction were recorded.
The mean values of the urethral baseline pressure for the solvent administration group and the test substance-administration groups were calculated, and the results were indicated as mean±SE. […]

A word on the melting point: it is the temperature, or range, at which the solid turns liquid.

With `Cl.O=C(OC1CCNCC1)C(OCCC(F)(F)F)(c1ccccc1)c1ccccc1`, the melting point lay within 152 to 153 °C.

Molecule `Cl.O=C(OC1CCNCC1)C(OCCCF)(c1ccccc1)c1ccccc1` had a melting point of 135 to 136 °C.

`Cl.O=C(COCCC(F)F)OC1CCNCC1` yielded a melting point of 130 to 132 °C.

`Cl.O=C(OC1CCNCC1)C(OCC(F)F)(c1ccccc1)c1ccccc1` yielded a melting point of 172 to 174 °C.

Molecule `Cl.O=C(OC1CCNCC1)C(OCC(F)(F)C(F)F)(c1ccccc1)c1ccccc1` yielded a melting point of 128 to 130 °C.

The molecule `Cl.O=C(OC1CCNCC1)C(OCC(F)(F)C(F)(F)F)(c1ccccc1)c1ccccc1` registered a melting point of 98 to 100 °C.

Regarding `CCCOC(C(=O)OC1CCNCC1)(c1ccccc1)c1ccccc1` [comparative compound, 4-piperidyl 2,2-diphenyl-2-propoxyacetate], the urethral baseline pressure entry was “little effect” in the data set with female SD rats and “did not have a significant effect” in the data set with female SD rats (listed as Comparative Example).
